Results as given in US20240025912A1 (Merck Sharp & Dohme LLC, priority 2022, published 2024).
pEC50: −log10 of the molar value.

Target: GST-RIPK1 (recombinant GST-RIPK1 kinase domain (residues 1-327)) (Homo sapiens (Human), UniProt Q13546)
Experiment: RIPK1-ADP-Glo Enzymatic Assay
Format: biochemical
Conditions: 25 nM GST-RIPK1, 300 μM ATP, 3 μM dephosphorylated-MBP, 30 min pre-incubation, 150 min reaction
Protocol: The enzymatic activity of RIPK1 is measured using an assay derived from ADP-Glo kit (TMPromega), which provides a luminescent-based ADP detection system. Specifically, the ADP generated by RIPK1 kinase is proportionally detected as luminescent signals in a homogenous fashion. In this context, the assessment of the inhibitory effect of small molecules (EC50) is measured by the effectiveness of the compounds to inhibit the ATP to ADP conversion by RIPK1.
In this assay, the potency (EC50) of each compound was determined from a ten-point (1:3 serial dilution; top compound concentration of 100000 nM) titration curve using the following outlined procedure. To each well of a white ProxiPlus 384 well-plate, 30 nL of compound (1% DMSO in final assay volume of 3 μL) was dispensed, followed by the addition of 2 μL of 1× assay buffer (25 mM Hepes 7.3, 20 mM MgCl2, 50 mM NaCl, 1 mM DTT, 0.005% Tween20, and 0.02% BSA) containing 37.5 nM of GST-RIPK1 (recombinant GST-RIPK1 kinase domain (residues 1-327) enzyme produced from baculovirus-transfected Sf21 cells: MW 62 kDa). Plates were placed in an ambient temperature humidified chamber for a 30 min pre-incubation with compound. Subsequently, each reaction was initiated by the addition of 1 μL 1× assay buffer containing 900 μM ATP and 3 μM dephosphorylated-MBP substrate. The final reaction in each well of 3 μL consists of 25 nM of GST-RIPK1, 300 μM ATP, and 3 μM dephosphorylated-MBP. Kinase reactions were allowed to proceed for 150 min prior to adding ADP-Glo reagents per Promega's outlined kit protocol. Dose-response curves were generated by plotting percent effect (% product conversion; Y-axis) vs. Log 10 compound concentrations (X-axis). EC50 values were calculated using a non-linear regression, four-parameters sigmoidal dose-response model.

Sequence of GST-RIPK1 (recombinant GST-RIPK1 kinase domain (residues 1-327)) (Q13546 1-327): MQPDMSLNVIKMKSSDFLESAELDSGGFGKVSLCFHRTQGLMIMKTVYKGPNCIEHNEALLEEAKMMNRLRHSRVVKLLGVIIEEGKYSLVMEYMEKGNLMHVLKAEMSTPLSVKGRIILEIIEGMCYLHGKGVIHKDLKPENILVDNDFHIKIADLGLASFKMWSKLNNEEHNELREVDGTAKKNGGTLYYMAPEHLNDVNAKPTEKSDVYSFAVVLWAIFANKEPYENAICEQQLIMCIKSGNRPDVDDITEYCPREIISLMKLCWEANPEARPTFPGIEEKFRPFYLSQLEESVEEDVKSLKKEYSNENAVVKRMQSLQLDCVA

pEC50	SMILES
7.70	N#CC12CC(n3nc4n(c3=O)[C@H](c3cc(F)cc(F)c3)CC4)(C1)C2(F)F [Compound 3-1, 3-[(5S)-5-(3,5-difluorophenyl)-3-oxo-6,7-dihydro-3H-pyrrolo[2,1-c][1,2,4]triazol-2(5H)-yl]-2,2-difluorobicyclo[1.1.1]pentane-1-carbonitrile]
6.37	N#Cc1cccc(C2CCc3nn(C45CC(F)(C4)C5)c(=O)n32)c1 (racemic) [Compound 4-3, (±)-3-[2-(3-fluorobicyclo[1.1.1]pentan-1-yl)-3-oxo-2,5,6,7-tetrahydro-3H-pyrrolo[2,1-c][1,2,4]triazol-5-yl]benzonitrile]
6.30	N#CC12CC(n3nc4n(c3=O)[C@H](c3ccccc3)CC4F)(C1)C2 (single isomer, unassigned) [Compound 6-7, 3-[(5S)-7-(S or R)-fluoro-3-oxo-5-phenyl-6,7-dihydro-3H-pyrrolo[2,1-c][1,2,4]triazol-2(5H)-yl]bicyclo[1.1.1]pentane-1-carbonitrile]
6.78	N#CC12CC(n3nc4n(c3=O)[C@H](c3cnccn3)CC4)(C1)C2 [Compound 4-8, (S)-3-(3-oxo-5-(pyrazin-2-yl)-6,7-dihydro-3H-pyrrolo[2,1-c][1,2,4]triazol-2(5H)-yl)bicyclo[1.1.1]pentane-1-carbonitrile]
7.36	Cc1cc(F)cc(C2CCc3nn(C45CC(F)(C4)C5)c(=O)n32)c1 (racemic) [Compound 4-6, (±)-2-(3-fluorobicyclo[1.1.1]pentan-1-yl)-5-(3-fluoro-5-methylphenyl)-2,5,6,7-tetrahydro-3H-pyrrolo[2,1-c][1,2,4]triazol-3-one]
7.08	O=c1n(C23CC(F)(C2)C3)nc2n1[C@H](c1cnccn1)CC2 [Compound 4-12, (S)-2-(3-fluorobicyclo[1.1.1]pentan-1-yl)-5-(pyrazin-2-yl)-2,5,6,7-tetrahydro-3H-pyrrolo[2,1-c][1,2,4]triazol-3-one]
7.16	N#CC12CC(n3nc4n(c3=O)[C@H](c3ccccc3F)CC4F)(C1)C2 (single isomer, unassigned) [Compound 6-9, 3-[(5S)-7-(S or R)-fluoro-5-(2-fluorophenyl)-3-oxo-6,7-dihydro-3H-pyrrolo[2,1-c][1,2,4]triazol-2(5H)-yl]bicyclo[1.1.1]pentane-1-carbonitrile]
6.31	C#Cc1cccc(C2CCc3nn(C45CC(F)(C4)C5)c(=O)n32)c1 (racemic) [Compound 4-4, (±)-5-(3-ethynylphenyl)-2-(3-fluorobicyclo[1.1.1]pentan-1-yl)-2,5,6,7-tetrahydro-3H-pyrrolo[2,1-c][1,2,4]triazol-3-one]

Further lines, the molecule ahead of its results:

SMILES	pEC50
COC(=O)C12CC(n3nc4n(c3=O)[C@H](c3ccccc3)CC4)(C1)C2 [Compound 1-19, methyl 3-[(5S)-3-oxo-5-phenyl-6,7-dihydro-3H-pyrrolo[2,1-c][1,2,4]triazol-2(5H)-yl]bicyclo[1.1.1]pentane-1-carboxylate]	6.54
O=c1n(C23CC(c4ccccc4)(C2)C3)nc2n1[C@H](c1cc(F)cc(F)c1)CC2 [Compound 1-12, (5S)-5-(3,5-difluorophenyl)-2-(3-phenylbicyclo[1.1.1]pentan-1-yl)-2,5,6,7-tetrahydro-3H-pyrrolo[2,1-c][1,2,4]triazol-3-one]	7.31
O=c1n(C23CC(F)(C2)C3)nc2n1[C@H](c1cccc(F)c1)CC2 [Compound 1-16, (S)-2-(3-fluorobicyclo[1.1.1]pentan-1-yl)-5-(3-fluorophenyl)-2,5,6,7-tetrahydro-3H-pyrrolo[2,1-c][1,2,4]triazol-3-one]	7.64
N#CC12CC(n3nc4n(c3=O)[C@H](c3cc(F)cc(F)c3)CCC4)(C1)C2 [Compound 1-53, (S)-3-(5-(3,5-difluorophenyl)-3-oxo-5,6,7,8-tetrahydro-[1,2,4]triazolo[4,3-a]pyridin-2(3H)-yl)bicyclo[1.1.1]pentane-1-carbonitrile]	6.96
O=c1n(C23CC(F)(C2)C3)nc2n1[C@H](c1cncc(F)c1)CC2 [Compound 1-10, (5S)-2-(3-fluorobicyclo[1.1.1]pentan-1-yl)-5-(5-fluoropyridin-3-yl)-2,5,6,7-tetrahydro-3H-pyrrolo[2,1-c][1,2,4]triazol-3-one]	6.57
N#Cc1ccc([C@@H]2CCc3nn(C45CC(F)(C4)C5)c(=O)n32)cc1 [Compound 1-67, (S)-4-(2-(3-fluorobicyclo[1.1.1]pentan-1-yl)-3-oxo-2,5,6,7-tetrahydro-3H-pyrrolo[2,1-c][1,2,4]triazol-5-yl)benzonitrile]	6.55
O=c1n(C23CC(F)(C2)C3)nc2n1[C@H](c1ccccc1)CCC2 [Compound 1-80, (S)-2-(3-fluorobicyclo[1.1.1]pentan-1-yl)-5-phenyl-5,6,7,8-tetrahydro-[1,2,4]triazolo[4,3-a]pyridin-3(2H)-one]	7.13
Cc1c(F)cc([C@@H]2CCc3nn(C45CC(C#N)(C4)C5)c(=O)n32)cc1F [Compound 1-51, (S)-3-(5-(3,5-difluoro-4-methylphenyl)-3-oxo-6,7-dihydro-3H-pyrrolo[2,1-c][1,2,4]triazol-2(5H)-yl)bicyclo[1.1.1]pentane-1-carbonitrile]	7.79
N#CC12CC(n3nc4n(c3=O)[C@H](c3ccc(F)cc3)CC4)(C1)C2 [Compound 1-38, 3-[(5S)-5-(4-fluorophenyl)-3-oxo-6,7-dihydro-3H-pyrrolo[2,1-c][1,2,4]triazol-2(5H)-yl]bicyclo[1.1.1]pentane-1-carbonitrile]	6.80
O=c1n(C23CC(F)(C2)C3)nc2n1[C@H](c1ccc(F)cc1)CC2 [Compound 1-37, (5S)-2-(3-fluorobicyclo[1.1.1]pentan-1-yl)-5-(4-fluorophenyl)-2,5,6,7-tetrahydro-3H-pyrrolo[2,1-c][1,2,4]triazol-3-one]	7.18
O=c1n(C23CCC(F)(CC2)C3)nc2n1[C@H](c1cc(F)cc(F)c1)CC2 [Compound 1-3, (5S)-5-(3,5-difluorophenyl)-2-(4-fluorobicyclo[2.2.1]heptan-1-yl)-2,5,6,7-tetrahydro-3H-pyrrolo[2,1-c][1,2,4]triazol-3-one]	7.46
O=c1n(C23CC(c4ccccc4)(C2)C3)nc2n1[C@H](c1cncc(F)c1)CC2 [Compound 1-13, (5S)-5-(5-fluoropyridin-3-yl)-2-(3-phenylbicyclo[1.1.1]pentan-1-yl)-2,5,6,7-tetrahydro-3H-pyrrolo[2,1-c][1,2,4]triazol-3-one]	6.29
O=c1n(C23CC(F)(C2)C3)nc2n1[C@H](c1ccccc1)COC2 [Compound 1-78, (R)-2-(3-fluorobicyclo[1.1.1]pentan-1-yl)-5-phenyl-2,5,6,8-tetrahydro-3H-[1,2,4]triazolo[3,4-c][1,4]oxazin-3-one]	7.03
Cc1cncc([C@@H]2CCc3nn(C45CC(Cl)(C4)C5)c(=O)n32)n1 [Compound 1-68]	7.23
O=c1n(C23CC(C(F)F)(C2)C3)nc2n1[C@H](c1ccccc1)CC2 [Compound 1-31, (5S)-2-[3-(difluoromethyl)bicyclo[1.1.1]pentan-1-yl]-5-phenyl-2,5,6,7-tetrahydro-3H-pyrrolo[2,1-c][1,2,4]triazol-3-one]	7.43
O=c1n(C23CC(C(F)F)(C2)C3)nc2n1[C@H](c1cccc(F)c1)CC2 [Compound 1-33, (5S)-2-[3-(difluoromethyl)bicyclo[1.1.1]pentan-1-yl]-5-(3-fluorophenyl)-2,5,6,7-tetrahydro-3H-pyrrolo[2,1-c][1,2,4]triazol-3-one]	7.52
